# Reference: article PMC10261046, “Mechanism of small molecule inhibition of Plasmodium falciparum myosin A informs antimalarial drug design” (Nature Communications, 2023)
# pIC50, pKd: −log10 of the molar value.
# Legend:
# [1] = target: T1, PfMyoA (Plasmodium falciparum myosin A) (Plasmodium falciparum, UniProt Q8IDR3); assay: X-ray crystal structure, […] Å; format: binding; parameters: gene MyoA; with PfELC and PfMTIP light chains
# Target sequence in this assay (Q8IDR3 whole entry): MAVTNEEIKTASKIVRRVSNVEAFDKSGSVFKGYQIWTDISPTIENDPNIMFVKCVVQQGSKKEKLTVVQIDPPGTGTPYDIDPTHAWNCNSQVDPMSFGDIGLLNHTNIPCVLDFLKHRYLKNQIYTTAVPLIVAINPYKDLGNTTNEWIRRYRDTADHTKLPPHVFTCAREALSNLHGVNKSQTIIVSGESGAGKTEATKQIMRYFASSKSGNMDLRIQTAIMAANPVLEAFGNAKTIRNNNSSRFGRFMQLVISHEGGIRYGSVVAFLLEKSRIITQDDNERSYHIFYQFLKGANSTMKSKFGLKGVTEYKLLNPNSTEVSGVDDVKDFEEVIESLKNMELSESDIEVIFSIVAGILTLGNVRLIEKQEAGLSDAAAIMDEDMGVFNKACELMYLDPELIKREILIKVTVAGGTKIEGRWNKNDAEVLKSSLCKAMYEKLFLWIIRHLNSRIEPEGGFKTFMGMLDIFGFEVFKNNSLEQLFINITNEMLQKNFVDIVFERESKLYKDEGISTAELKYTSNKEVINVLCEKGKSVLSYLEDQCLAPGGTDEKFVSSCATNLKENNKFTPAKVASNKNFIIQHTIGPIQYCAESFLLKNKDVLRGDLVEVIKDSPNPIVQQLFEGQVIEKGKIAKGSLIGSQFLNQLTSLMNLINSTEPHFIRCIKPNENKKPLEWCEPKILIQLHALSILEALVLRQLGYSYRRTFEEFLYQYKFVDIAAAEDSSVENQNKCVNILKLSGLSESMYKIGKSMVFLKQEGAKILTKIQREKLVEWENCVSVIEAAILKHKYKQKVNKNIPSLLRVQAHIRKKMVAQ
# Target sequence in this assay (Q8I4W8 entry or part of it, further chain): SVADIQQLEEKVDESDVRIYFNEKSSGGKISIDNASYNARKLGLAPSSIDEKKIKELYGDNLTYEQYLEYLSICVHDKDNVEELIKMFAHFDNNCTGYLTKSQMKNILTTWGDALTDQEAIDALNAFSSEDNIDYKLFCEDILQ
# Target sequence in this assay (Q8IJM4 entry or part of it, further chain): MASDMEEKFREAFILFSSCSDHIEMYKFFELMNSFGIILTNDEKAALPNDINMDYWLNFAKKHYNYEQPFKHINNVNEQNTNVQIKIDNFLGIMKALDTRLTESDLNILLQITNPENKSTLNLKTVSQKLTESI
# [2] = target: T1, PfMyoA (Plasmodium falciparum myosin A); assay: X-ray crystal structure, […] Å; format: binding; parameters: gene MyoA; with PfELC and PfMTIP light chains; remark: listed apart in the source
# Target sequence in this assay (Q8IDR3 whole entry): as the sequence (Q8IDR3 whole entry) above
# Target sequence in this assay (Q8IJM4 entry or part of it, further chain): as the sequence (Q8IJM4 entry or part of it, further chain) above
# [3] = target: T1, PfMyoA (Plasmodium falciparum myosin A); assay: stopped-flow fluorescence transient kinetics; Kd printed in text is in the presence of […] KNX-002; format: binding; parameters: gene MyoA; full length PfMyoA heavy chain with light chains; with PfELC and PfMTIP light chains
# Target sequence in this assay (Q8IDR3 whole entry): as the sequence (Q8IDR3 whole entry) above
# Target sequence in this assay (Q8IJM4 entry or part of it, further chain): as the sequence (Q8IJM4 entry or part of it, further chain) above
# Target sequence in this assay (Q8I4W8 entry or part of it, further chain): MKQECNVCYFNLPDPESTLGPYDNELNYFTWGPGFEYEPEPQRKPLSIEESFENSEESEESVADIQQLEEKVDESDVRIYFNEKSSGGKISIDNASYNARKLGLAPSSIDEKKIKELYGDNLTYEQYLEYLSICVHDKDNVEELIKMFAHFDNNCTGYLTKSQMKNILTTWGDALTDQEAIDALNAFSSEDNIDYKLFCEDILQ
# PfMyoA triple mutant = target: T2, PfMyoA triple mutant (Plasmodium falciparum, UniProt Q8IDR3, F270Y/F471A/F645H); assay: basal ATPase assay (NADH-linked); format: biochemical
# T2 construct: gene MyoA; full length PfMyoA heavy chain triple mutant, co-expressed with light chains PfELC and PfMTIP; with PfELC and PfMTIP light chains
# T2 sequence (Q8IDR3 whole entry, stated change not applied): as the sequence (Q8IDR3 whole entry) above
# T2 sequence (Q8IJM4 whole entry, stated change not applied, further chain): as the sequence (Q8IJM4 entry or part of it, further chain) above
# [4] = target: T1, PfMyoA (Plasmodium falciparum myosin A); assay: X-ray crystal structure ([…] Å) and affinity measurement for nucleotide-free PfMyoA; also basal and actin-activated ATPase inhibition (IC50 […]); format: binding; parameters: gene MyoA; with PfELC and PfMTIP light chains
# Target sequence in this assay (Q8IDR3 whole entry): as the sequence (Q8IDR3 whole entry) above
# Target sequence in this assay (Q8IJM4 entry or part of it, further chain): as the sequence (Q8IJM4 entry or part of it, further chain) above
compound,measurement,setting,value
Nc1ncnc2c1ncn2[C@@H]1O[C@H](CO[P@](=O)(O)O[P@](=O)(O)O[P@@](=O)(O)S)[C@@H](O)[C@H]1O [ATPγS],"X-ray crystal structure, 2.2 Å",[1],unhydrolyzed Mg.ATPyS occupies the active site of PfMyoA/ATPγS/KNX-002
Nc1ncnc2c1ncn2[C@@H]1O[C@H](COP(=O)(O)OP(=O)(O)O)[C@@H](O)[C@H]1O [ADP],"X-ray crystal structure, 2.03 Å",[2],the substrate was hydrolyzed in PfMyoA/ATPγS/Apo leaving only Mg.ADP in the active site
mant-ADP,pKd,[3],5.46
COc1ccc(C2(NCc3c[nH]nc3-c3cccs3)CC2)cc1 [KNX-002],pIC50,PfMyoA triple mutant,4.28
same,pKd,[4],5.07
